Consider 19 compounds from patent publication US11149037B2, “Pyrazole MAGL inhibitors” (H. Lundbeck A/S, priority 2017, dated 2021).

Assay type in all cases: biochemical
Experiment [1] addresses FAAH (Homo sapiens (Human), UniProt O00519). In words: In vitro competitive activity-based protein profiling, human proteomes (prefrontal cortex or PC3 cell membrane fractions). The following applies: human proteome; for inhibition at 1 µM: read-out: FAAH % inh. 1 μM (human). In a few lines: (§1)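 Activity of MAGL and FAAH was quantified from fluorescent gel band intensities. Beforehand, inhibitors at several concentrations competed against subsequent probe labelling (FP-Rh, JW912 or HT-01) in species-matched proteomes, each step 30 min at 37° C.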

Experiment [2] deals with MAGL (Homo sapiens (Human), UniProt Q99685). The description is as above. To be noted: human proteome; for inhibition at 1 µM: read-out: MAGL % inh. 1 μM (human); for inhibition at 10 µM: read-out: MAGL % inh. (human) @ 10 μM. The method in brief: as §1
For experiment [3], the target named is MAGL (Mus musculus (Mouse), UniProt O35678). Description: In vitro competitive activity-based protein profiling, mouse proteomes (brain membrane fraction or cell lysates). The following applies: mouse proteome, read-out: MAGL % inh. 1 μM (mouse). In a few lines:
as §1

The target of experiment [4] is FAAH (Mus musculus (Mouse), UniProt O08914). Described as above. The following applies: mouse proteome, read-out: FAAH % inh. 1 μM (mouse). In a few lines:
as §1

Some results are limits rather than exact numbers.

Chain of MAGL (Homo sapiens (Human), UniProt Q99685) (Q99685 whole entry): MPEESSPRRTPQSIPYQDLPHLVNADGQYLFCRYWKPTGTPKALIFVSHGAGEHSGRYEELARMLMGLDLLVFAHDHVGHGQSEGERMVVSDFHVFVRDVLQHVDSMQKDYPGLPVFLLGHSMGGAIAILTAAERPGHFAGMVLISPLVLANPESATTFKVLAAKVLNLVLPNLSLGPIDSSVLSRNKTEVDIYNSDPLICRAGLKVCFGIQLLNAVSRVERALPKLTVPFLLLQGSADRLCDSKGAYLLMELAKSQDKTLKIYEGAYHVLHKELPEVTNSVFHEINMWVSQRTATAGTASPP
Chain of FAAH (Homo sapiens (Human), UniProt O00519) (O00519 whole entry): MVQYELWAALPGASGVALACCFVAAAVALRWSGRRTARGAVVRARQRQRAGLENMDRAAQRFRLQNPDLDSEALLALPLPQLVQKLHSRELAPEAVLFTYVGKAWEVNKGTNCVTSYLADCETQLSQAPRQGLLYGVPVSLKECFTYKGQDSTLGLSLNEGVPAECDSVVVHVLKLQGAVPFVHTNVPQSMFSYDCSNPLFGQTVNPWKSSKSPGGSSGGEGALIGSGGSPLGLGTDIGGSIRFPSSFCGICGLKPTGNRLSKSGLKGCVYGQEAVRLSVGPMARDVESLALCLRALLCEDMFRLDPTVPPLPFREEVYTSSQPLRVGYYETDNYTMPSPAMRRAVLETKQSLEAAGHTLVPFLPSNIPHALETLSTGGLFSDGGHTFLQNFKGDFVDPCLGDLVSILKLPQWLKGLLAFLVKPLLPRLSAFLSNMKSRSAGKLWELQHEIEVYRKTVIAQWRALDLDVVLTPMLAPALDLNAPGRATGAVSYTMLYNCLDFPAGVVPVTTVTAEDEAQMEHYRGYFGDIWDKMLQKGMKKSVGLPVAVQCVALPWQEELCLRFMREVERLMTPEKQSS
Chain of FAAH (Mus musculus (Mouse), UniProt O08914) (O08914 whole entry): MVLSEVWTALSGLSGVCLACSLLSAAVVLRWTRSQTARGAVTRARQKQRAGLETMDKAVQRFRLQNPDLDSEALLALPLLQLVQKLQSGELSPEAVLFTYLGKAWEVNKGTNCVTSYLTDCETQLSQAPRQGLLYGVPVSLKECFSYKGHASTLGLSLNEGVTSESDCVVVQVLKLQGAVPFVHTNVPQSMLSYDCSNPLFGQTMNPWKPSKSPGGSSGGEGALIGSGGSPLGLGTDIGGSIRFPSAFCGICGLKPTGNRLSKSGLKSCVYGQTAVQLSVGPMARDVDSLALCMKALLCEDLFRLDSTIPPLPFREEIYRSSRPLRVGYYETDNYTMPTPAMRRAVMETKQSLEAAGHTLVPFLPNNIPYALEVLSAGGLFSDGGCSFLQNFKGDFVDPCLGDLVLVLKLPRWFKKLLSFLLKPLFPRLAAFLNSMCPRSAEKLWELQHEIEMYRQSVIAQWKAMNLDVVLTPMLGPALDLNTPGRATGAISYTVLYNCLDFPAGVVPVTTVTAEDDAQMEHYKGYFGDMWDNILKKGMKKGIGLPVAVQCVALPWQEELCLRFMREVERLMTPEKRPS
Chain of MAGL (Mus musculus (Mouse), UniProt O35678) (O35678 whole entry): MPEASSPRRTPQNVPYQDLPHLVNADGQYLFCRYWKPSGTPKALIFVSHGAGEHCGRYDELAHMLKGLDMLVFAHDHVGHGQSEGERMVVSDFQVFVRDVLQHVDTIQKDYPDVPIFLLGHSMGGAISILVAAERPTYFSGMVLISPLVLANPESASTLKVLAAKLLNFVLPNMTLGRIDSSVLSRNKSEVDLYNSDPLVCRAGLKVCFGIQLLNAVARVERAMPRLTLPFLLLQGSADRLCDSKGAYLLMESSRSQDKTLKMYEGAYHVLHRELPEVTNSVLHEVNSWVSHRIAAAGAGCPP

A word on the IC50: it is the concentration at which inhibition is half-maximal. Low readings indicate greater potency, high ones weaker potency. For the compound `CC(=O)Nc1ccn(C(=O)N2CC3CN(Cc4cccc(Oc5ccccc5Cl)c4)CC3C2)n1` (stereo not shown) [Example 18, N-(1-(5-(3-(2-chlorophenoxy)benzyl)octahydropyrrolo[3,4-c]pyrrole-2-carbonyl)-1H-pyrazol-3-yl)acetamide], the inhibition at 1 µM in experiment [1], in experiment [2], in experiment [3] and in experiment [4] was more than 75% throughout. The IC50 was 0.1 to 1 µM in experiment [1] and less than 0.1 µM in experiment [2].

`CN(c1ccc(C(F)(F)F)cc1N1CCCC1)C1CCN(C(=O)n2ccc(NS(C)(=O)=O)n2)CC1` [Example 19, N-(1-(4-(methyl(2-(pyrrolidin-1-yl)-4-(trifluoromethyl)phenyl)amino)piperidine-1-carbonyl)-1H-pyrazol-3-yl)methanesulfonamide]: the inhibition at 1 µM in experiment [1] is 0 to 25%; in experiment [2], more than 75%; in experiment [3] it was more than 75%; in experiment [4], 0 to 25%.

For the compound `CC(=O)Nc1ccn(C(=O)N2CCC3(CCCN3C(=O)c3ccc(Cl)c(C4CC4)c3)CC2)n1` [Example 20, N-(1-(1-(4-chloro-3-cyclopropylbenzoyl)-1,8-diazaspiro[4.5]decane-8-carbonyl)-1H-pyrazol-3-yl)acetamide], the inhibition at 1 µM was 0 to 25% in experiment [1], more than 75% in experiment [2], more than 75% in experiment [3] and more than 75% in experiment [4]. The IC50 is 1 to 10 µM in experiment [1] and less than 0.1 µM in experiment [2].

`CS(=O)(=O)Nc1ccn(C(=O)N2CCC(Oc3ccc(Cl)c(C4CCCC4)c3)CC2)n1` [Example 21, N-(1-(4-(4-chloro-3-cyclopentylphenoxy)piperidine-1-carbonyl)-1H-pyrazol-3-yl)methanesulfonamide]: the inhibition at 1 µM was 0 to 25% in experiment [1], more than 75% in experiment [2], more than 75% in experiment [3] and 0 to 25% in experiment [4].

As for `CC(=O)Nc1ccn(C(=O)N2CCC3(CCN(Cc4ccc(N5CCCC5)cc4C(F)(F)F)C3)CC2)n1` [Example 23, N-(1-(2-(4-(pyrrolidin-1-yl)-2-(trifluoromethyl)benzyl)-2,8-diazaspiro[4.5]decane-8-carbonyl)-1H-pyrazol-3-yl)acetamide], the inhibition at 1 µM in experiment [1], in experiment [2], in experiment [3] and in experiment [4] was more than 75% in each case. In addition, the 50% inhibitory concentration (IC50) in experiment [1] is 0.1 to 1 µM; in experiment [2], less than 0.1 µM.

`CC(=O)Nc1ccn(C(=O)N2CC3CN(Cc4ccc(Cl)c(C5(O)CCCC5)c4)CC3C2)n1` (stereo not shown) [Example 24, N-(1-(5-(4-Chloro-3-(1-hydroxycyclopentyl)benzyl)octahydropyrrolo[3,4-c]pyrrole-2-carbonyl)-1H-pyrazol-3-yl)acetamide]: the inhibition at 1 µM is 0 to 25% in experiment [1], more than 75% in experiment [2], more than 75% in experiment [3] and 0 to 25% in experiment [4].

As to `CC(=O)Nc1ccn(C(=O)N2CCC3(CCN(Cc4cc(C(F)(F)F)cc(C5(C(=O)O)CCCC5)c4)C3)CC2)n1` [Example 25, 1-(3-((8-(3-Acetamido-1H-pyrazole-1-carbonyl)-2,8-diazaspiro[4.5]decan-2-yl)methyl)-5-(trifluoromethyl)phenyl)cyclopentane-1-carboxylic acid], the inhibition at 1 µM is 0 to 25% in experiment [1], more than 75% in experiment [2], more than 75% in experiment [3] and 0 to 25% in experiment [4]. Besides, the half-inhibitory concentration (IC50) in experiment [1] is 1 to 10 µM; in experiment [2], less than 0.1 µM.

With `CN(Cc1ccc(Cl)c(N2CC3COCC3C2)c1)C1(C)CCN(C(=O)n2ccc(NS(C)(=O)=O)n2)CC1` (stereo not shown) [Example 26, N-(1-(4-((4-Chloro-3-(tetrahydro-1H-furo[3,4-c]pyrrol-5(3H)-yl)benzyl)(methyl)amino)-4-methylpiperidine-1-carbonyl)-1H-pyrazol-3-yl)methanesulfonamide], the inhibition at 1 µM in experiment [1] is 0 to 25%; in experiment [2], more than 75%; in experiment [3], 0 to 25%; in experiment [4] it was 0 to 25%.

For the compound `CS(=O)(=O)Nc1ccn(C(=O)N2C[C@H]3C[C@H](OCc4cccc(C(F)(F)F)c4)C[C@H]3C2)n1` [Example 28, N-(1-((3aR,5s,6aS)-5-((3-(trifluoromethyl)benzyl)oxy)octahydrocyclopenta[c]pyrrole-2-carbonyl)-1H-pyrazol-3-yl)methanesulfonamide], the inhibition at 1 µM in experiment [1], in experiment [2], in experiment [3] and in experiment [4] was more than 75% in each case.

With `CC1(N(CC(=O)O)Cc2ccc(C(F)(F)F)cc2N2CCCC2)CCN(C(=O)n2ccc(NS(C)(=O)=O)n2)CC1` [Example 29, N-(4-methyl-1-(3-(methylsulfonamido)-1H-pyrazole-1-carbonyl)piperidin-4-yl)-N-(2-(pyrrolidin-1-yl)-4-(trifluoromethyl)benzyl)glycine], the inhibition at 1 µM in experiment [1], in experiment [3] and in experiment [4] was 0 to 25% each time. In addition, the inhibition at 10 µM in experiment [2] lay in the range of 50 to 75%.

Turning to `C[C@H]1CN(C(=O)n2ccc(NS(C)(=O)=O)n2)CCN1Cc1cnc(Cl)c(N2CCC(F)CC2)c1` [Example 31, (S)—N-(1-(4-((6-chloro-5-(4-fluoropiperidin-1-yl)pyridin-3-yl)methyl)-3-methylpiperazine-1-carbonyl)-1H-pyrazol-3-yl)methanesulfonamide], the inhibition at 1 µM was 0 to 25% in experiment [1], more than 75% in experiment [2], more than 75% in experiment [3] and 0 to 25% in experiment [4].

In the case of `CC(C)(O)COc1cccc(CN2CCN(C(=O)n3ccc(NS(C)(=O)=O)n3)CC2)c1Cl` [Example 34, N-(1-(4-(2-Chloro-3-(2-hydroxy-2-methylpropoxy)benzyl)piperazine-1-carbonyl)-1H-pyrazol-3-yl)methanesulfonamide], the inhibition at 1 µM in experiment [1], in experiment [2], in experiment [3] and in experiment [4] was more than 75% in each case. Further, the IC50 in experiment [1] was 0.1 to 1 µM; in experiment [2] it was less than 0.1 µM.

For `CS(=O)(=O)Nc1ccn(C(=O)N2CCC(N(Cc3ccc(C(F)(F)F)cc3N3CCCC3)C3CC3)CC2)n1` [Example 35, N-(1-(4-(cyclopropyl(2-(pyrrolidin-1-yl)-4-(trifluoromethyl)benzyl)amino)piperidine-1-carbonyl)-1H-pyrazol-3-yl)methanesulfonamide], the inhibition at 1 µM is 0 to 25% in experiment [1], more than 75% in experiment [2], more than 75% in experiment [3] and 0 to 25% in experiment [4].

As to `CC(=O)Nc1ccn(C(=O)N2CCC3(CCCN3Cc3cc4cc(Cl)ccc4[nH]3)CC2)n1` [Example 38, N-(1-(1-((5-Chloro-1H-indol-2-yl)methyl)-1,8-diazaspiro[4.5]decane-8-carbonyl)-1H-pyrazol-3-yl)acetamide], the IC50 is 1 to 10 µM in experiment [1] and less than 0.1 µM in experiment [2]. Besides, the inhibition at 1 µM was more than 75% in experiment [3] and 25 to 50% in experiment [4].

On to `CS(=O)(=O)Nc1ccn(C(=O)N2CC3CN(Cc4ccc(Oc5ccc(Cl)cc5)cc4)CC3C2)n1` (stereo not shown) [Example 40, N-(1-(5-(4-(4-Chlorophenoxy)benzyl)octahydropyrrolo[3,4-c]pyrrole-2-carbonyl)-1H-pyrazol-3-yl)methanesulfonamide], for which the inhibition at 1 µM was 50 to 75% in experiment [1], 25 to 50% in experiment [2], 25 to 50% in experiment [3] and more than 75% in experiment [4].

Consider `CC(=O)Nc1ccn(C(=O)N2CCC3(CCCN3Cc3cc4cc(Cl)c(Cl)cc4[nH]3)CC2)n1` [Example 43, N-(1-(1-((5,6-Dichloro-1H-indol-2-yl)methyl)-1,8-diazaspiro[4.5]decane-8-carbonyl)-1H-pyrazol-3-yl)acetamide], for which the inhibition at 1 µM was 0 to 25% in experiment [1], more than 75% in experiment [2], more than 75% in experiment [3] and 0 to 25% in experiment [4]. Also, the figures for the IC50 in experiment [1] and in experiment [2] were 1 to 10 µM and less than 0.1 µM, respectively.

For the compound `CS(=O)(=O)Nc1ccn(C(=O)N2CC3CN(Cc4cc(Cl)ccc4C(F)(F)F)CC3C2)n1` (stereo not shown) [Example 45, N-(1-(5-(5-Chloro-2-(trifluoromethyl)benzyl)octahydropyrrolo[3,4-c]pyrrole-2-carbonyl)-1H-pyrazol-3-yl)methanesulfonamide], the inhibition at 1 µM in experiment [1], in experiment [3] and in experiment [4] was 0 to 25% in each case. In addition, the inhibition at 10 µM in experiment [2] lay in the range of 0 to 25%.

Regarding `CS(=O)(=O)Nc1ccn(C(=O)N2CCC3(CCN(Cc4cc(Cl)ccc4C(F)(F)F)C3)CC2)n1` [Example 46, N-(1-(2-(5-Chloro-2-(trifluoromethyl)benzyl)-2,8-diazaspiro[4.5]decane-8-carbonyl)-1H-pyrazol-3-yl)methanesulfonamide], the inhibition at 1 µM in experiment [1], in experiment [3] and in experiment [4] was 0 to 25% in each case. Further, the inhibition at 10 µM in experiment [2] fell in the range of 25 to 50%.

For the compound `CS(=O)(=O)Nc1ccn(C(=O)N2CC3CN(Cc4ccc(N5CCCC5)cc4C(F)(F)F)CC3C2)n1` (stereo not shown) [Example 47, N-(1-(5-(4-(Pyrrolidin-1-yl)-2-(trifluoromethyl)benzyl)octahydropyrrolo[3,4-c]pyrrole-2-carbonyl)-1H-pyrazol-3-yl)methanesulfonamide], the inhibition at 1 µM in experiment [1], in experiment [3] and in experiment [4] was 0 to 25% throughout. The inhibition at 50 µM in experiment [2] (50 μM, read-out: MAGL % inh. (human) @ 50 μM) is 25 to 50%.
